The results in this text go back to US6352985B1, “Benzimidazole compounds” (Fujisawa Pharmaceutical Co., Ltd., priority 1995, dated 2002).

The test system of this experiment is 3T3-L1 cells (pre-adipocytes). Put plainly: Stimulatory activity of triglyceride (TG) accumulation in 3T3-L1 cells (pre-adipocytes). To be noted: test compound 1 × 10^−5 M with insulin; 1×10^−6 M pioglitazone defined as 100%, insulin (+) without the chemical agent defined as 0%. The format is cell-based. The protocol:
Stimulatory activity of triglyceride (TG) accumulation in 3T3-L1 cells (pre-adipocytes)
3T3-L1 cells just before a confluent state were prepared in an F75 flask. The medium was removed, and the residue was washed twice with 5 ml of PBS (−). The cells were detached using a solution of EDTA and trypsin. Ten milliliters of the medium were added thereto to form a suspension. This suspension was collected in a 50-milliliter centrifuge tube, and was subjected to centrifugation at 1,000 rpm for 5 minutes. Thus, the cells were precipitated, and the supernatant was removed. The cells were re-suspended in 20 ml of the medium, and the number of cells was counted. The suspension was adjusted such that the concentration of the cells reached 6×10^4 cells/ml, and was inoculated into a 24-well plate in an amount of 1 ml/well. In this state, the incubation was conducted in an incubator at 37° C. in 5% CO2 for 2 days.
A solution of 1-mM dexamethasone and 500-mM IBMX was prepared in DMSO. […]
Four to five days after the addition of the test chemical agent and the insulin solution, the 24-well plate was withdrawn from the incubator. […] Subsequently, the residue was extracted twice with isopropyl alcohol, and TG was measured at a wavelength of 410 nm using a TG-measuring kit (acetyl-acetone method). […]

The structures appear in SMILES notation.

Consider `O=C(NS(=O)(=O)Cc1ccccc1)c1ccc2nc(C3CC3)n(Cc3ccccc3F)c2c1` [6-benzylsulfonylcarbamoyl-2-cyclopropyl-1-(2-fluorobenzyl)benzimidazole], for which the “Stimulatory activity of TG accumulation (%)” value is 38.2%.
